Data taken from publication PMC5705267 (Synapse (New York, N.Y.), 2017).
pIC50: −log10 of the molar value.

Biological target: GHSR1a (growth hormone secretagogue receptor 1a, ghrelin receptor) (Homo sapiens, UniProt Q92847)
Assay: aequorin Ca2+ mobilization, antagonism of L-692, […] in HEK293 cells
Type: cell-based

Sequence of GHSR1a (growth hormone secretagogue receptor 1a, ghrelin receptor) (Q92847 whole entry): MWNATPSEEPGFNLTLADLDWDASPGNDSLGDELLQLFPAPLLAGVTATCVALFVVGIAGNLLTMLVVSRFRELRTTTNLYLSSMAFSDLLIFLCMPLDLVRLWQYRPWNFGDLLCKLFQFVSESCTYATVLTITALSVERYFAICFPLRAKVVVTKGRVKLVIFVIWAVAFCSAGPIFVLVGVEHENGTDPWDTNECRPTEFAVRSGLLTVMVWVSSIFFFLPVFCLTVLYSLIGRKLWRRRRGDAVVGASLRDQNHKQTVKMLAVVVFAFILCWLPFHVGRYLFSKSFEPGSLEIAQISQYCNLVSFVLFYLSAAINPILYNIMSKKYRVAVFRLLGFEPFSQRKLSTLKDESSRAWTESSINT

Cc1nc2ccc(Oc3ccc(F)cc3)cc2c(=O)n1C[C@H]1CCCN(C(C)C)C1 [YIL781] showed a pIC50 of 6.73.
